Values of other authors in EP2899264B1, “EMULSION FOR MICROBIAL GROWTH, METHOD FOR GROWING MICROORGANISMS BY USING SAID EMULSION, AND METHOD FOR PRODUCING MICROBIAL METABOLITE” (Kaneka Corporation, priority 2012, dated 2014).

Key:
microorganisms = details: used as emulsifier
[1] = for concentration at which the acid aggregates: in water
Aeromonas hydrophila = details: sole carbon source
[2] = tested on: Ralstonia eutropha (currently classified as Cupriavidus necator); details: sole carbon source

Row | Molecule | effect on growth of microorganisms (microorganisms) | PHA productivity [2] [g/L] | concentration at which the acid aggregates [1] [µM] | further results
1 | CCCCCCCCCCCCOS(=O)(=O)[O-].[Na+] [SDS] | inhibit growth of microorganisms | – | – | –
2 | CCCCCCCCCCCC(=O)O [lauric acid] | – | ≤ 1 | – | water solubility [1]: ≤ 0.1 mg/mL; dry cell weight (Aeromonas hydrophila): about 8 g/L
3 | CCCCCCCCCCCCCC(=O)O [myristic acid] | – | ≤ 1 | – | –
4 | CCCCCCCCCCCCCCCC(=O)O [palmitic acid] | – | – | ≤ 1 | –
5 | CCCCCCCCCCCCCCCCCC(=O)O [stearic acid] | – | – | ≤ 1 | –
6 | Triton X-100 | inhibit growth of microorganisms | – | – | –
